The subject of series [1] is HT-29. Nature of the series: Anti-necroptotic activity in TSZ-induced human HT-29 cells assessed as increase in cell viability preincubated with Z-VAD-FMK and SM164 for 30 mins followed by TNFalpha stimulation for 12 hrs and measured after compound addition by CellTiter-Lumi luminescent cell viability assay. The class given is functional, cell-based.
The subject of a further series is RAW264.7. Nature of the series: Anti-necroptotic activity in LZ-induced mouse RAW264.7 cells assessed as increase in cell viability at 5 to 10 uM preincubated with compound followed by LPS and Z-VAD-FMK stimulation and measured after 16 hrs by CellTiter-Lumi luminescent cell viability assay. The class given is functional, cell-based. Particulars: dose 5-10 µM.
In series [2] the test system is L929. Kind of series: Anti-necroptotic activity in TZ-induced mouse L929 cells assessed as increase in cell viability preincubated with compound followed by Z-VAD-FMK and mTNFalpha stimulation and measured after 4 hrs by CellTiter-Lumi luminescent cell viability assay. The class given is functional, cell-based. Particulars: dose 0.625-10 µM.
The test system of series [3] is L929. Nature of the series: Anti-necroptotic activity in TZ-induced mouse L929 cells assessed as rounded shape cell morphology at 10 uM measured after 12 hrs by Live-cell super-resolution panoramic microscopic analysis. The class given is functional, cell-based.
The subject of series [4] is Mus musculus. Kind of series: Anti-necroptotic activity in TNFalpha/Z-VAD-FMK induced SIRS male C57BL/6J mouse model assessed as protection from hypothermia at 2.5 to 10 mg/kg, po pre-administered with compound via gavage for 2 hrs followed by […] of Z-VAD-FMK stimulation for 15 mins with subsequent TNF-alpha stimulation for 1 hrs and re-current […] of Z-VAD-FMK stimulation and measured after 8 hrs post SIRS induction. The class given is functional, organism-based. The conditions noted are these: dose 2.5-10 mg/kg, time 10.0 hrs.

In series [5] the test system is Mus musculus. Kind of series: Anti-necroptotic activity in TNFalpha/Z-VAD-FMK induced SIRS male C57BL/6J mouse model assessed as survival rate at 5 mg/kg, po pre-administered with compound via gavage for 2 hrs followed by […] of Z-VAD-FMK stimulation for 15 mins with subsequent TNF-alpha stimulation for 1 hrs and re-current […] of Z-VAD-FMK stimulation and measured after 8 hrs post SIRS induction relative to control. It counts as functional. Particulars: time 10 hrs.

The test system of series [6] is Mus musculus. Kind of series: Anti-necroptotic activity in TNFalpha/Z-VAD-FMK induced SIRS male C57BL/6J mouse model assessed as reduction in IL-1beta in kidney at 5 to 10 mg/kg, po pre-administered with compound via gavage for 2 hrs followed by 180 mg of Z-VAD-FMK stimulation for 15 mins with subsequent TNF-alpha stimulation for 1 hrs and re-current 70 mg of Z-VAD-FMK stimulation and measured after 8 hrs post SIRS induction by ELISA. It counts as functional, organism-based. Particulars: dose 5-10 mg/kg, time 10.0 hrs.

Series [7] concerns Mus musculus. Kind of series: Anti-necroptotic activity in TNFalpha/Z-VAD-FMK induced SIRS male C57BL/6J mouse model assessed as reduction in IL-1beta in intestine at 5 to 10 mg/kg, po pre-administered with compound via gavage for 2 hrs followed by 180 mg of Z-VAD-FMK stimulation for 15 mins with subsequent TNF-alpha stimulation for 1 hrs and re-current 70 mg of Z-VAD-FMK stimulation and measured after 8 hrs post SIRS induction by ELISA. The class given is functional, organism-based. Particulars: dose 5-10 mg/kg, time 10.0 hrs.

In series [8] the test system is Mus musculus. Nature of the series: Anti-necroptotic activity in TNFalpha/Z-VAD-FMK induced SIRS male C57BL/6J mouse model assessed as reduction in IL6 in brain at 5 to 10 mg/kg, po pre-administered with compound via gavage for 2 hrs followed by […] of Z-VAD-FMK stimulation for 15 mins with subsequent TNF-alpha stimulation for 1 hrs and re-current […] of Z-VAD-FMK stimulation and measured after 8 hrs post SIRS induction by ELISA. It counts as functional, organism-based. Particulars: dose 5-10 mg/kg, time 10.0 hrs.

A short description of series [9]: AUC (0 to 24 hrs) in Sprague-Dawley rat at 2 mg/kg, iv measured after 24 hrs by LC-MS/MS analysis. The class given is ADME, organism-based. The conditions noted are these: in vivo.
Series [10] can be described thus: Acute toxicity in male C57BL/6J mouse assessed as survival at 2 g/Kg, po measured within 72 hrs relative to control. The class given is organism-based. The conditions noted are these: in vivo, 2000 mg/kg.
Series [11] in a line: Acute toxicity in male C57BL/6J mouse assessed as structural changes in stomach at 2 g/Kg, IG measured after 72 hrs by H and E staining based analysis. Particulars: in vivo, po, 2000 mg/kg. It counts as tissue-based.
Series [12] concerns HT-29. Kind of series: Downregulation of RIPK1 protein level in human HT-29 cells at 3 to 6 uM incubated for 9 hrs by Western blot analysis. The class given is functional, cell-based. The conditions noted are these: dose 3-6 µM. A general note: A western blot detects proteins with antibodies after separation by electrophoresis.
Series [13] deals with HT-29. Kind of series: Downregulation of RIPK3 protein level in human HT-29 cells at 6 uM preincubated with MLN4924 for 2 hrs followed by compound addition and measured after 9 hrs by Western blot analysis. The class given is functional, cell-based.
For series [14], the system named is HT-29. Nature of the series: Downregulation of RIPK3 protein level in human HT-29 cells at 6 uM preincubated with Z-VAD-FMK for 2 hrs followed by compound addition and measured after 9 hrs by Western blot analysis. The class given is functional, cell-based.
For series [15], the system named is HT-29. Nature of the series: Downregulation of MLKL protein level in human HT-29 cells at 6 uM preincubated with Z-VAD-FMK for 2 hrs followed by compound addition and measured after 9 hrs by Western blot analysis. It counts as functional, cell-based.

Active and inactive are the calls of the source. No cut-off for these calls is given here.

Regarding `Cn1ccc(-c2ccc(NC(=O)[C@]34CCC(C)(C)C[C@H]3[C@H]3C(=O)C=C5[C@@]6(C)C=C(C#N)C(=O)C(C)(C)[C@@H]6CC[C@@]5(C)[C@]3(C)CC4)cc2)n1`, the concentration giving a half-maximal response (EC50) (usually the concentration needed to bring the measured effect to its halfway point) with HT-29 [1] came to 1.38 µM. In addition, the Activity entry is “Active; Much Better Activity Observed” in the series with RAW264.7, “Dose-dependent-effect” with L929 [2], “Non-toxic” in series [11] and “Active; Significant Effect Observed” in the series with HT-29 [12]. Also, the outcome in the series on L929 [3], in the series on Mus musculus [4], in the series on Mus musculus [6], in the series with Mus musculus [7], in the series on Mus musculus [8] and in the series with HT-29 [13] was Active. The outcome in the series on HT-29 [14] and with HT-29 [15] was Active. For the same compound, the survival at 5 mg/kg with Mus musculus [5] came out at 58%. Also, the AUC(0-t) (as a rule, exposure summed from dosing to a finite time, without extrapolation to infinity) at 24 h in series [9] turned out to be 4.64 µg·h/mL. Also, in [10], the survival at 72 h is 100%.

The record behind these values is ChEMBL document CHEMBL6177981, “Bardoxolone Derivatives as Novel Pseudo-Natural Necroptosis Inhibitors by Destabilizing HSP90 Client Proteins” (J Med Chem, 2025).
